In ChEMBL document CHEMBL1146001, “Thiothalidomides: novel isosteric analogues of thalidomide with enhanced TNF-alpha inhibitory activity” (J Med Chem, 2003):

Columns and labels:
TNF-alpha (Homo sapiens) [1] = test: Compound was tested for the inhibition of LPS-induced TNF-alpha production in human peripheral blood mononuclear cells (PBMC) at 30 uM
TNF-alpha (Homo sapiens) [2] = test: Compound was tested for the inhibition of LPS-induced TNF-alpha production in human peripheral blood mononuclear cells (PBMC)

SMILES	inhibition at 30 µM (TNF-alpha (Homo sapiens) [1]) [%]	IC50 (TNF-alpha (Homo sapiens) [2]) [µM]
O=C1NC(=S)c2ccccc21	34	> 30
O=C(O)CCC(C(=O)O)N1C(=O)c2ccccc2C1=S (stereo not drawn)	20	> 30
O=C1c2ccccc2C(=S)N1C1CCC(=S)NC1=S (stereo not drawn)	79	6
O=C1CCC(N2C(=O)c3ccccc3C2=S)C(=O)N1 (stereo not drawn)	23	> 30
S=C1CCCC(=S)N1	75	8
O=C1NC(=S)CCC1N1C(=O)c2ccccc2C1=S (stereo not drawn)	61	11
COC(=O)CCC(C(=O)OC)N1C(=O)c2ccccc2C1=S (stereo not drawn)	56	20
O=C1c2ccccc2C(=S)N1C1C=CCCC1 (stereo not drawn)	85	16
O=C1NC(=S)CCC1N1C(=O)c2ccccc2C1=O (stereo not drawn)	31	> 30
O=C1CCCC(=S)N1	15	> 30
S=C1NC(=S)c2ccccc21	95	3
O=C1c2ccccc2C(=O)N1C1CCC(=S)NC1=S (stereo not drawn)	52	20
S=C1c2ccccc2C(=S)N1C1C=CCCC1 (stereo not drawn)	86	15
COC(=O)CCC(C(=O)OC)N1C(=S)c2ccccc2C1=S (stereo not drawn)	85	10
